Earlier results in publication PMC3517478 (BMC Neurology, 2012).

Key:
[1] = tested on: startle mutations of the glycine receptor; conditions: propofol 1–500 μM; Xenopus laevis oocytes; cited from earlier work
[2] = tested on: transgenic mice (tg271Q-300); conditions: 15 mg/kg i.p.; cited from earlier work

In the case of `CC(C)c1cccc(C(C)C)c1O` [propofol], the “effect on glycine induced maximal response” value [1] is listed as “increases the glycine induced maximal response” and the “effect on startle symptoms (righting time, tremor)” value [2] is listed as “decreased righting time and abatements in tremor without sedative side effects”.
